Key:
[1] = system: Haemonchus Contortus; assay: Egg reduction test (eggs per gram of faeces) in experimentally infected sheep; format: in vivo; conditions: oral (gelatin capsule), 1 sheep, EPG
Description: Effectiveness of Forms I-IV of the Depsipeptide of the Formula (I) at Different Oral Dosages Against Haemonchus Contortus in Sheep
Sheep (Merino or Blackhead breed, 25-35 kg of body weight) were experimentally infected with 5000H contortus L3 larvae and treated with the formulated test substance at the end of the prepatency time of the parasite. The test compounds were administered orally (gelatin capsule). The anthelmintic effectiveness of the test substances was measured as a function of reduction of the number of eggs per gram of faeces. To this end, fresh faeces from the test animals were processed according to the McMaster method, modified according to Wetzel, and the number of eggs was determined. The number of eggs was determined at regular intervals before and after the treatment. The anthelmintic effectiveness was defined as follows: 3=>95%, 2=75-95%, 1=50-75% and 0=<50% reduction in eggs (cf. also G. von Samson-Himmelstjerna, A. Harder, T. Schnieder, J. Kalbe, N. Mencke (2000) In vivo activities of the new anthelmintic depsipeptide PF1022A. Parasitol. Res. 86:194-199).

[2] = system: Cooperia Oncophora; assay: Slaughter test (reduction of number of worms in small intestine) in experimentally infected cattle; format: in vivo; conditions: oral, 3 cattle, slaughter 10 days after treatment
Description: Effectiveness of Forms I and IV of the Depsipeptide of the Formula (I) at Different Oral Dosages Against Cooperia Oncophora in Cattle
Cattle (breed: Hostein Friesean, species: Bos taurus, calves or young cattle of up to about 200 kg) were experimentally infected with 15,000 C. oncophora L3 larvae. After successful infection (prepatency time about 18-21 days) the number of eggs per gram of faeces was determined 3 times within one week. The animals were then (at day 0=day of the treatment) treated orally (gelatin capsule) or subcutaneously with the formulated test substance. The anthelmintic effectiveness of the test substances was determined as a function of the reduction of the number of worms (in % of the untreated control) in the small intestine after the animals had been slaughtered (10 days after the treatment) (cf. also G. von Samson-Himmelstjerna, A. Harder, T. Schnieder, J. Kalbe, N. Mencke (2000) In vivo activities of the new anthelmintic depsipeptide PF1022A. Parasitol. Res. 86: 194-199.).
The effectiveness in the slaughter experiment is stated in % reduction in worms, compared to the untreated control.

[3] = Thermodynamic stability of the crystal forms; format: physicochemical; conditions: comparison of forms I-IV
[4] = Bioavailability of the crystal forms; format: in vivo; conditions: comparison of forms I-IV

SMILES: CC(C)C[C@H]1C(=O)O[C@H](Cc2ccc(N3CCOCC3)cc2)C(=O)N(C)[C@@H](CC(C)C)C(=O)O[C@H](C)C(=O)N(C)[C@@H](CC(C)C)C(=O)O[C@H](Cc2ccc(N3CCOCC3)cc2)C(=O)N(C)[C@@H](CC(C)C)C(=O)O[C@H](C)C(=O)N1C [Form III]
- Effectiveness (reduction of eggs per gram of faeces) ([1]; dosage 0.1 mg/kg, listed as III): 1 (1 Sheep, EPG) (1 = effectiveness 50% to 75%)
- Effectiveness (reduction of eggs per gram of faeces) ([1]; dosage 0.5 mg/kg, listed as III): 1 (1 Sheep, EPG) (1 = effectiveness 50% to 75%)

SMILES: CC(C)C[C@H]1C(=O)O[C@H](Cc2ccc(N3CCOCC3)cc2)C(=O)N(C)[C@@H](CC(C)C)C(=O)O[C@H](C)C(=O)N(C)[C@@H](CC(C)C)C(=O)O[C@H](Cc2ccc(N3CCOCC3)cc2)C(=O)N(C)[C@@H](CC(C)C)C(=O)O[C@H](C)C(=O)N1C [Form II]
- Effectiveness (reduction of eggs per gram of faeces) ([1]; dosage 0.1 mg/kg, listed as II): 0 (1 Sheep, EPG) (0 = effectiveness ≦ 50 %)
- Effectiveness (reduction of eggs per gram of faeces) ([1]; dosage 0.5 mg/kg, listed as II): 0 (1 Sheep, EPG) (0 = effectiveness ≦ 50 %)

SMILES: CC(C)C[C@H]1C(=O)O[C@H](Cc2ccc(N3CCOCC3)cc2)C(=O)N(C)[C@@H](CC(C)C)C(=O)O[C@H](C)C(=O)N(C)[C@@H](CC(C)C)C(=O)O[C@H](Cc2ccc(N3CCOCC3)cc2)C(=O)N(C)[C@@H](CC(C)C)C(=O)O[C@H](C)C(=O)N1C [Form IV]
- Effectiveness (% reduction in worms, compared to the untreated control) ([2]; dosage 1.0 mg/kg, listed as IV): 43.09% (3 cattle, slaughter test)
- Effectiveness (% reduction in worms, compared to the untreated control) ([2]; dosage 2.0 mg/kg): 99.15% (3 cattle, slaughter test)
- Thermodynamic stability (rank among the four forms) ([3]; listed as form IV): thermodynamically fourth most stable form
- Effectiveness (reduction of eggs per gram of faeces) ([1]; dosage 0.1 mg/kg, listed as IV): 0 (1 Sheep, EPG) (0 = effectiveness ≦ 50 %)
- Effectiveness (reduction of eggs per gram of faeces) ([1]; dosage 0.5 mg/kg, listed as IV): 0 (1 Sheep, EPG) (0 = effectiveness ≦ 50 %)
- Effectiveness (reduction of eggs per gram of faeces) ([1]; dosage 1.0 mg/kg): 3 (1 Sheep, EPG) (3 = effectiveness > 95%)

SMILES: CC(C)C[C@H]1C(=O)O[C@H](Cc2ccc(N3CCOCC3)cc2)C(=O)N(C)[C@@H](CC(C)C)C(=O)O[C@H](C)C(=O)N(C)[C@@H](CC(C)C)C(=O)O[C@H](Cc2ccc(N3CCOCC3)cc2)C(=O)N(C)[C@@H](CC(C)C)C(=O)O[C@H](C)C(=O)N1C [Form I]
- Effectiveness (% reduction in worms, compared to the untreated control) ([2]; dosage 1.0 mg/kg, listed as I): 93.81% (3 cattle, slaughter test)
- Thermodynamic stability (rank among the four forms) ([3]; listed as form I): thermodynamically most stable form
- Effectiveness (reduction of eggs per gram of faeces) ([1]; dosage 0.1 mg/kg, listed as I): 3 (1 Sheep, EPG) (3 = effectiveness > 95%)
- Effectiveness (reduction of eggs per gram of faeces) ([1]; dosage 0.5 mg/kg, listed as I): 3 (1 Sheep, EPG) (3 = effectiveness > 95%)
- Bioavailability (rank among the forms) [4]: greatest bioavailability

— patent US20040115483A1, “Crystal modification of a cyclic depsipeptide having improved strength” (priority 2001, published 2004)
